Test results reported in patent US12478608B2, “Use of slow-releasing hydrogen sulfide organic donor ADT-OH in the preparation of drugs for treating nervous system diseases” (SOOCHOW UNIVERSITY, priority 2021, dated 2025).

How the values were obtained:
Assay type in all cases: cell-based, mouse
neural precursor cells [1] = assay: Differentiation of neural precursor cells into oligodendrocytes (MBP immunofluorescence); settings: ADT-OH 80 μmol/L; 5 days in differentiation medium
Description: (§1) • (1) Adult ICR mice (male:female 2:1) were allowed to mate randomly. At 8:00 every night, the male and female mice were co-caged. […] On day 14.5 of pregnancy of the mice, neural precursor cells were extracted.
(§2) C57BL/6J mice at day 14.5 of pregnancy were anesthetized with 4% chloral hydrate by intraperitoneal injection. The abdominal cavity of the pregnant mice was opened using sterile surgical scissors and surgical forceps, the uterus of the pregnant mice was opened and the fetal brain was taken out. […]
(§3) The cultured cells were fixed with 4% PFA for 15 min, and washed three times with 0.01 M PBS, and then immunofluorescence staining was performed with Tuj1, GFAP, MBP, and caspase3 antibodies. The plate was blocked with a DAPI-containing blocking agent (Vector Labs, H-1400), observed and photographed under a Zeiss fluorescence microscope. Tuj1-positive neurons GFAP-positive astrocytes, MBP-positive oligodendrocytes and DAPI-positive cells were counted using ImageJ and adobe photoshop, respectively. The rate of positive cells to all DAPI-positive cells was calculated. • (2) The cells were fixed with 4% PFA after 5 days of differentiation in the differentiation medium, and immunofluorescently stained with the neuron-specific antibody Tuj1. […]
The rate of MBP positive cells to all DAPI-positive cells was statistically calculated.

neural precursor cells [2] = assay: Differentiation of neural precursor cells into neurons (Tuj1 immunofluorescence) and axonal length; settings: ADT-OH 80 μmol/L; 5 days in differentiation medium
Description: as §1
C57BL/6J mice at day 14.5 of pregnancy were anesthetized with 4% chloral hydrate by intraperitoneal injection. The abdominal cavity of the pregnant mice was opened using sterile surgical scissors and surgical forceps, the uterus of the pregnant mice was opened and the fetal brain was taken out. The fetal brain tissue in the subventricular zone was isolated under a stereomicroscope, digested with 0.05% trypsin in a water bath at 37° C. for 10 min, and then terminated with a neural precursor cell culture medium (containing DMEM-F12 medium 39.2 ml, 1×B27 800 ul, 0.2 mg/ml bEGF 4 ul, and 0.2 mg/ml FGF 8 ul), and then gently blown into individual cells. The cells were centrifuged at 700 rcf for 5 min and the supernatant was discarded. The neural precursor cell culture medium was added, and the cells were inoculated and cultured in a 24-well cell culture plate. […]
The cultured cells were fixed with 4% PFA for 15 min, and washed three times with 0.01 M PBS, and then immunofluorescence staining was performed with Tuj1, GFAP, MBP, and caspase3 antibodies. The plate was blocked with a DAPI-containing blocking agent (Vector Labs, H-1400), observed and photographed under a Zeiss fluorescence microscope. Tuj1-positive neurons GFAP-positive astrocytes, MBP-positive oligodendrocytes and DAPI-positive cells were counted using ImageJ and adobe photoshop, respectively. The rate of positive cells to all DAPI-positive cells was calculated. • (2) The cells were fixed with 4% PFA after 5 days of differentiation in the differentiation medium, and immunofluorescently stained with the neuron-specific antibody Tuj1. After staining, images were collected under a fluorescence microscope, and the rates of neurons to all DAPI-positive cells in each group were statistically calculated.

neural precursor cells [3] = assay: Apoptosis of neural precursor cells (caspase3 staining); settings: ADT-OH 80 μmol/L
Procedure: The isolated primary neural precursor cells were cultured for 3-4 days, and the neurospheres were blown into individual cells. and inoculated in a 24-well cell culture plate lined with adhesive glass discs. The cells were grown in neural precursor cell culture medium supplemented with ADT-OH (80 μmol/L) or control solute DMSO for 3 days, respectively, and then stained with apoptosis-specific antibody caspase3. Images were collected under a fluorescence microscope, and • the rate of caspase3 positive cells to all DAPI-positive cells were statistically calculated.

neural precursor cells [4] = assay: Differentiation of neural precursor cells into astrocytes (GFAP immunofluorescence); settings: ADT-OH 80 μmol/L; 8 days in differentiation medium
Description: as §1, §2, §3
The rate of GFAP positive cells to DAPI-positive cells was statistically calculated.

Oc1ccc(-c2cc(=S)ss2)cc1 [ADT-OH, 5-(p-hydroxyphenyl)-1,2-dithione-3-thione]
differentiation into oligodendrocytes (MBP positive cells to all DAPI-positive cells) compared with the DMSO control group (neural precursor cells [1]): more cells are differentiated into oligodendrocytes
rate of differentiation into oligodendrocytes, increase compared with the DMSO control group (neural precursor cells [1]): 87.5%
axons of neurons (axonal length) compared with the DMSO control group (neural precursor cells [2]): longer axons
differentiation into neurons (Tuj1-positive cells to all DAPI-positive cells) compared with the DMSO control group (neural precursor cells [2]): more cells are differentiated into neurons
rate of differentiation into neurons, increase compared with the DMSO control group (neural precursor cells [2]): 57.69%
apoptosis, reduction compared with the DMSO control group (neural precursor cells [3]; 3 days): 44.8%
apoptotic cells (caspase3 positive cells to all DAPI-positive cells) compared with the DMSO control group (neural precursor cells [3]; 3 days in neural precursor cell culture medium): fewer cells are apoptotic
differentiation into astrocytes (GFAP positive cells to DAPI-positive cells) compared with the DMSO control group (neural precursor cells [4]): fewer cells in the ADT-OH group are differentiated into astrocytes
rate of differentiation into astrocytes, reduction compared with the DMSO control group (neural precursor cells [4]): 69.2%
